Assay results from US20090093521A1, “2, 5-Bis-Diamine [1,4] Benzoquinone-Derivatives” (priority 2005, published 2009).

Key:
[1] = molecular target: AChE (Homo sapiens, UniProt P22303); assay type: biochemical; details: for IC50: Ellman method, saturating substrate (acetylthiocholine), absorbance at 412 nm; for Selectivity IC50 (BuChE)/IC50 (AchE): ratio of IC50 (BuChE) to IC50 (AChE), preference for AChE over BuChE
[2] = molecular target: BuChE (Homo sapiens, UniProt P06276); assay: biochemical; assay type: biochemical; details: Ellman method, saturating substrate, absorbance at 412 nm
Sequence of BuChE (P06276 29-602): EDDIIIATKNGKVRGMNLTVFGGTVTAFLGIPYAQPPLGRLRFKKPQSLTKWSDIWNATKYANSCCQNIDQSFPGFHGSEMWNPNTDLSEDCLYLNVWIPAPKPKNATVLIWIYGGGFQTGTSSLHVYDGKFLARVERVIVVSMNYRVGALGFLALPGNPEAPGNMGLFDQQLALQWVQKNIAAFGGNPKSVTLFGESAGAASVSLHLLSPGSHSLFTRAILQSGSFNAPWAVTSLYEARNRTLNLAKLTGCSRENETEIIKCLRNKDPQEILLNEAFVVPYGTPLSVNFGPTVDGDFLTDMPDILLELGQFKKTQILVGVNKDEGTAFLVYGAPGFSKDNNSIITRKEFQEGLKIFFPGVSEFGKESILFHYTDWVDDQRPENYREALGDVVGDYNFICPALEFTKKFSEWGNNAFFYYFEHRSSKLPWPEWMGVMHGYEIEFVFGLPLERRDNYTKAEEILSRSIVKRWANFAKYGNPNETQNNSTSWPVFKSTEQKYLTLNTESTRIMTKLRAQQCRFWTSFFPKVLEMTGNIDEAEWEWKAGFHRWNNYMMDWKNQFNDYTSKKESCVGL

Sequence of AChE (P22303 32-614): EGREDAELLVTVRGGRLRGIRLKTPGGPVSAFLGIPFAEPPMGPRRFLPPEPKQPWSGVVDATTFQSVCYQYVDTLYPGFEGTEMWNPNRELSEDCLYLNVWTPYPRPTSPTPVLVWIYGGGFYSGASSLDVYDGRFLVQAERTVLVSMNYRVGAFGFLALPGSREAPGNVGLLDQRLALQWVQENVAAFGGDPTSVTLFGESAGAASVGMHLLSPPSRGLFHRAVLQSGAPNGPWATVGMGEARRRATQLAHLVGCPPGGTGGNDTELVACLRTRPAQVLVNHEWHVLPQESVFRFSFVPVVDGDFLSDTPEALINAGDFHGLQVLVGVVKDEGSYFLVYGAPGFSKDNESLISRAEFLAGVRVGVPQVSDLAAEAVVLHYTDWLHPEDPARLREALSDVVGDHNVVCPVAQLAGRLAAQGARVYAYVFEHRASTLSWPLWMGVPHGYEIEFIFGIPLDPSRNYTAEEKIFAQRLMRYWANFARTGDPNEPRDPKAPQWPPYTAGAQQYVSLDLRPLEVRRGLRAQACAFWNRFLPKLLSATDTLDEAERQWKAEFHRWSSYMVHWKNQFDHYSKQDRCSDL

Structure (SMILES) | IC50 [1] [nM] | Selectivity IC50 (BuChE)/IC50 (AchE) [1] | IC50 [2] [nM]
CCN(CCCCCCNC1=C(F)C(=O)C(NCCCCCCN(CC)Cc2ccccc2OC)=C(F)C1=O)Cc1ccccc1OC [Compound 35, 2,5-bis-{6-[ethyl-(2-methoxy-benzyl)-amine]-hexylamine}-3,6-difluorine-[1,4]benzoquinone] | 5.17 ± 0.17 | 294 | 1520 ± 90
CCN(CCCCCCNC1=C(Br)C(=O)C(NCCCCCCN(CC)Cc2ccccc2OC)=C(Br)C1=O)Cc1ccccc1OC [Compound 36, 2,5-bis-{6-[ethyl-(2-methoxy-benzyl)-amine]-hexylamine}-3,6-dibromine-[1,4]benzoquinone] | 2.66 ± 0.19 | 300 | 800 ± 62
